Several values for one entry are separate records, joined by “and”; a condition that tells them apart may be missing. Equal entries are not always repeated. Where two headings read alike, the source gives them in different places.
Legend:
[1] = molecular target: T1, Electrophorus electricus AChE (EeAChE) (Electrophorus electricus, UniProt O42275); assay: Inhibition of EeAChE (Ellman's assay); format: biochemical; conditions: mean ± SEM, at least three independent experiments
T1 construct: purified AChE from Electrophorus electricus (Type V-S, Sigma-Aldrich); purchased Sigma-Aldrich Type V-S
T1 sequence (O42275 24-633): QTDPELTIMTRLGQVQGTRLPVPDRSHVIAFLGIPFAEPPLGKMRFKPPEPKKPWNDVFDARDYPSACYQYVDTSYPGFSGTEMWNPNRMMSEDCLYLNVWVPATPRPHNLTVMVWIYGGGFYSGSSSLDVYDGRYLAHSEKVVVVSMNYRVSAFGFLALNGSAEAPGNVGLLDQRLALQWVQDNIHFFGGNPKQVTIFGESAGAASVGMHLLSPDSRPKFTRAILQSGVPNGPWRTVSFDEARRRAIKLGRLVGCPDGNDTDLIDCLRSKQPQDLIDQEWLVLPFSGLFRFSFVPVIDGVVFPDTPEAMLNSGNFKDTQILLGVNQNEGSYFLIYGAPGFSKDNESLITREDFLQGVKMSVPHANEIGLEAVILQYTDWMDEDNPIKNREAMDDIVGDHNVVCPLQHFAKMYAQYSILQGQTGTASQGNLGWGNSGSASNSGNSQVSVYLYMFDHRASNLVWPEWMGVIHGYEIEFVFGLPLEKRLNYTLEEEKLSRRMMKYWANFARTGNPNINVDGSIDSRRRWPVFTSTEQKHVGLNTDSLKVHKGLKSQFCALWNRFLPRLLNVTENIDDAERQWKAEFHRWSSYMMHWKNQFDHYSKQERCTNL
Protocol: For the preliminary screening of the inhibitory potencies, Electrophorus electricus AChE (EeAChE) and horse serum BuChE (eqBuChE) were used following the Ellman’s assay.
Assessment of the inhibitory power of BCPOs was performed following the spectrophotometric method of Ellman using purified AChE from Electrophorus electricus (Type V-S, Sigma-Aldrich) or BuChE from horse serum (lyophilized powder, Sigma-Aldrich). Enzymes were first dissolved in 0.1 M phosphate buffer (pH 8.0) and then aliquoted in small vials for easy handling. Compounds stock solutions in DMSO (10 mM) were diluted when necessary with DMSO to prepare appropriate dilutions of each compound. The assay was performed in a final volume of 3 mL of a 0.1 M phosphate-buffered solution at pH 8.0, containing 5,5′-dithiobis-2-nitrobenzoic acid (DTNB, 2625 µL, 0.35 mM, final concentration), EeAChE (29 µL, 0.035 U/mL final concentration) or eqBuChE (60 µL, 0.05 U/mL final concentration) tested compound (3 µL, different concentrations) and 1% (w/v) Bovine Albumin Serum phosphate-buffered (pH 8.0) solution (BSA, 40 µL). The inhibition in comparison to control without compound was determined by pre-incubating this blend at room temperature with each compound at nine different concentrations for 10 min. Then, acetylthiocholine iodide (105 µL, 0.35 mM, final concentration) or butyrylthiocholine iodide (150 µL, 0.5 mM final concentration) was added and incubated for another 15 min at rt. […] Calculation of IC50 values was performed with GraphPad Prism 5. Each concentration was measured in triplicate. Data are expressed as mean ± SEM.

[2] = molecular target: T2, human recombinant AChE (hAChE) (Homo sapiens, UniProt P22303); assay: biochemical
T2 construct: purchased Sigma-Aldrich
T2 sequence (P22303 32-614): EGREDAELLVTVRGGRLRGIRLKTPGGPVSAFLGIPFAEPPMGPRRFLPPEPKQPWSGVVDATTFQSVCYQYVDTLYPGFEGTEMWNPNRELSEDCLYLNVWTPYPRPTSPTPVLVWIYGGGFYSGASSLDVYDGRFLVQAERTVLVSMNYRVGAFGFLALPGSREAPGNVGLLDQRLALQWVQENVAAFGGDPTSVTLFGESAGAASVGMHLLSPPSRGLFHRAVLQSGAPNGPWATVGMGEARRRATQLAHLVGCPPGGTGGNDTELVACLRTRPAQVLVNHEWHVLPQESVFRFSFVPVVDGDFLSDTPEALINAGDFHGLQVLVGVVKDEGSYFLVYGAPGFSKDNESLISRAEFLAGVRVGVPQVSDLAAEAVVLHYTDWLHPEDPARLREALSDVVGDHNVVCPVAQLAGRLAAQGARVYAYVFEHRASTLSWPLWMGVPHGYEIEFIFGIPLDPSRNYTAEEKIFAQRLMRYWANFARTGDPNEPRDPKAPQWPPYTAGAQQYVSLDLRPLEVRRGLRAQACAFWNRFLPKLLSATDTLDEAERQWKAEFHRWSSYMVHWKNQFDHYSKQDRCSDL
Protocol: Ellman’s assay was followed to evaluate the anticholinesterasic potency of BCPOs using human recombinant AChE (Sigma-Aldrich). 500 U of hAChE were dissolved in 1 mL of a gelatine solution (1% in water) and diluted with demineralized water to give a stock solution of 5 U/mL. […] All assays were performed in 0.1 M phosphate buffer pH 8.0. The assayed compounds or blank (water) (25 µL) were incubated with the enzyme (20 µL) for 5 min at 37 °C in 765 µL of phosphate buffer prior to start the reaction. Then, 20 µL of DTNB and 20 µL of ATC were added. […] IC50 values were determined with GraphPad Prism 5. Each concentration was measured in triplicate. Data are expressed as mean ± SEM.

[3] = Oxygen radical absorbance capacity by fluorescence (ORAC-FL); conditions: mean ± SD
Protocol: Trolox was used as standard, fluorescein as fluorescent probe and 2,2′-azobis(2-amidinopropane) dihydrochloride (AAPH) as the peroxyl radical source. Ferulic acid was used as a positive control.
The antioxidant power of BCPOs was determined following the ORAC-FL method using fluorescein as the fluorescent probe. (±)-6-Hydroxy-2,5,7,8-tetramethylchromane-2-carboxylic acid (Trolox), fluorescein (FL) and AAPH were bought from Sigma-Aldrich (Saint Louis, MO, USA). A Varioskan Flash plate reader with built-in injectors (Thermo Scientific, Waltham, MA, USA) was used. The final volume reaction mixture was 200 µL and the reaction was carried out at 37 °C in 75 mM phosphate buffer (pH 7.4). The tested compounds and Trolox standard were dissolved in DMSO to 10 mM and further diluted in phosphate buffer. The final concentrations were 0.1–1 µM for the tested compounds and 1–8 µM for Trolox standard. The blank was composed of 120 µL of FL, 60 µL of AAPH and 20 µL of phosphate buffer (pH = 7.4) and was added in each assay. The antioxidant (20 µL) and fluorescein (FL, 120 µL, final concentration of 70 nM) were incubated in a black 96-well microplate Nunc, purchazed from Thermo Fisher Scientific, Ecublens, Switzerland) for 15 min at 37 °C. Then, AAPH, 60 µL, final concentration of 12 mM) solution was added quickly using the built-in injector. […] The microplate was automatically shaken prior to each reading. All the experiments were made in triplicate and at least three different assays were performed for each sample.
Using MS Excel software, regression equations were extrapolated by plotting the net AUC against the antioxidant concentration. The ORAC values were then obtained by dividing the slope of the latter curve between the slope of the Trolox curve obtained in the same assay. Final ORAC values were expressed as Trolox equivalents. Data are expressed as mean ± SD.

[4] = molecular target: T3, Recombinant human Aβ1–42 peptide (Homo sapiens, UniProt P05067); assay: Inhibition of Aβ1-42 aggregation (Thioflavin-T fluorometric assay); format: biochemical; conditions: for inhibition at 10 µM: 10 µM compound and 1.5 µM Aβ1-42, mean ± standard deviation of two independent experiments
T3 construct: Recombinant human 1,1,1,3,3,3-hexafluoro-2-propanol pretreated Aβ1–42 peptide; purchased Merck Millipore
T3 sequence (P05067 672-713): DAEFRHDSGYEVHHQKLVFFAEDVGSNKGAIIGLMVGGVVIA
Protocol: 2. Thioflavin-T (ThT) Fluorometric Assay
Recombinant human 1,1,1,3,3,3-hexafluoro-2-propanol pretreated Aβ1–42 peptide (Merck Millipore, Darmstadt, Germany) was dissolved in DMSO to give 75 µM stock solution. The stock solution was further diluted in HEPES buffered solu tion (150 mM HEPES, pH 7.4, 150 mM NaCl), to 7.5 µM. Aβ1–42 solution was then added to the test compounds in black-walled 96-well plate, and diluted with ThT solution (final concentration of ThT was 10 µM). Final mixture contained 1.5 µM Aβ1–42, 10 µM of test compounds, and 3% DMSO. ThT fluorescence was measured every 5 min (λex = 440 nm, λem = 490 nm), with the medium continuously shaking between measurements using a 96-well microplate reader (Synergy™ H4, BioTek Instruments, Inc., Winooski, VT, USA). The fluorescence intensities at the plateau reached after 24 h in the absence and presence of the test compound were averaged, and the average fluorescence of the corresponding wells at t = 15 min was subtracted. The Aβ1–42 aggregation inhibitory potency is expressed as the percentage inhibition (% inh = (1 − Fi/F0) × 100%), where Fi is the increase in fluorescence of Aβ1–42 treated with the test compound, and F0 is the increase in fluorescence of Aβ1–42 alone.
1. LeVine, H. Thioflavine T interaction with synthetic Alzheimer’s disease beta-amyloid peptides:
Detection of amyloid aggregation in solution. Protein Sci. Publ. Protein Soc. 1993, 2, 404–410.

Row | Compound | IC50 [1] [nM] | IC50 ([2]; mean ± SEM) [nM] | ORAC [3] | Aβ1–42 aggregation inhibition (in words) ([4]; 10 µM compound) | inhibition at 10 µM [4] [%] | IC50 [2] [nM]
1 | O=c1c2c(nc3n1CCCC3)Oc1ccc3ccccc3c1C2c1ccccc1 (stereo not drawn) [3Ab, 15-Phenyl-10,11,12,15-tetrahydro-9H-benzo[5,6]chromeno[2,3-d]pyrido[1,2-a]pyrimidin-14-one] | 55.5 ± 7.1 | 3660 ± 59 | 2.3 ± 0.3 Trolox equivalents | weak inhibition power | 13.6 ± 2.1 | –
2 | COc1cccc(C2c3c(nc4n(c3=O)CCC4)Oc3ccc4ccccc4c32)c1 (stereo not drawn) [3Ba, 14-(3′Methoxyphenyl)-10,11-dihydro-14H-benzo[5,6]chromeno[2,3-d]pyrrolo[1,2-a]pyrimidin-13(9H)-one] | 60.7 ± 4.5 | 1530 ± 25 | 3.4 ± 0.2 Trolox equivalents | – | < 10 | –
3 | COc1cccc(C2c3c(nc4n(c3=O)CCCC4)Oc3ccc4ccccc4c32)c1 (stereo not drawn) [3Bb, 15-(3′-Methoxyphenyl)-10,11,12,15-tetrahydro-9H-benzo[5,6]chromeno[2,3-d]pyrido[1,2-a]pyrimidin-14-one] | 30.5 ± 2.8 | 1280 ± 32 | 4.7 Trolox equivalents and 4.7 ± 0.2 Trolox equivalents | – | < 10 | 1280 ± 30
4 | Cc1ccc(C2c3c(nc4n(c3=O)CCCC4)Oc3ccc4ccccc4c32)cc1 (stereo not drawn) [3Cb, 15-(4′-Methylphenyl)-10,11,12,15-tetrahydro-9H-benzo[5,6]chromeno[2,3-d]pyrido[1,2-a]pyrimidin-14-one] | 55.9 ± 12.7 | 1590 ± 24 | 3.9 ± 0.3 Trolox equivalents | – | < 10 | –

From article PMC6273488, “Synthesis and Biological Evaluation of Benzochromenopyrimidinones as Cholinesterase Inhibitors and Potent Antioxidant, Non-Hepatotoxic Agents for Alzheimer’s Disease” (Molecules, 2016)
